The values that follow come from paper PMC10891602, “Improvement of Carotenoids’ Production by Increasing the Activity of Beta-Carotene Ketolase with Different Strategies” (Microorganisms, 2024).

One assay addresses T1, CrtWBsp (Brevundimonas sp. NBRC 101024, UniProt Q4W8B8).
T1 construct: gene crtW
T1 sequence (Q4W8B8 1-244): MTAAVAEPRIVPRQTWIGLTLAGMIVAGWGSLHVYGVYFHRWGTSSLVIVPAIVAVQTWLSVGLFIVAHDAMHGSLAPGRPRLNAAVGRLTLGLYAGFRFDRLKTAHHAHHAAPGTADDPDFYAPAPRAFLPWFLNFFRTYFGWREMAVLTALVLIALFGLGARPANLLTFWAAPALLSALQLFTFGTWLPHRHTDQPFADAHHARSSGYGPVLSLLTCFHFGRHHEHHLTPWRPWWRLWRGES
Put plainly: HPLC of echinenone and canthaxanthin formed by crude extract. The conditions noted are these: Fe2+, 2-oxoglutarate, ascorbate, NADPH, ATP; pH 8.0; 30 °C; 3 h. The assay is classed as biochemical.

The target in another assay is T2, CzW1 (Chromochloris zofingiensis, UniProt Q5U931).
T2 construct: gene bkt/crto
T2 sequence (Q5U931 1-312): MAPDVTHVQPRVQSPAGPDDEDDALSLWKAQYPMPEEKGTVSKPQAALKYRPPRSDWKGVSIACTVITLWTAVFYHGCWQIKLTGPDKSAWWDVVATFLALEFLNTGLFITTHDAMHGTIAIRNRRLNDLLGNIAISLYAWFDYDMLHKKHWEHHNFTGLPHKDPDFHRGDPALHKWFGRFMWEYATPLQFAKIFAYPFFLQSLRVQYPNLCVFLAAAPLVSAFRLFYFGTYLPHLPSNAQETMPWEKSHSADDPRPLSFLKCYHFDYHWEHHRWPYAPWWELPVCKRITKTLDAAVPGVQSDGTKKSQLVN
Described as above. The assay is classed as biochemical. The conditions noted are these: Fe2+, 2-oxoglutarate, ascorbate, NADPH, ATP; pH 8.0; 30 °C; 3 h.

For the molecule `CC1=C(/C=C/C(C)=C/C=C/C(C)=C/C=C/C=C(C)/C=C/C=C(C)/C=C/C2=C(C)CCCC2(C)C)C(C)(C)CCC1` [β-carotene], the “HPLC of echinenone and canthaxanthin formed by crude extract” value on CrtWBsp was “β-carotene ketolase from p30CrtWBsp was more efficient in the production of echinenone and canthaxanthin”; on CzW1, “canthaxanthin was only detected in enzymatic solution containing protein extracts from E. coli with pCrtWBsp and pCzW1”.
